Test results reported in patent US20080132417A1, “Molecular Basis For The Identification Of Chemotherapy Resistance In Human Tumors And The Treatment Thereof” (THE UAB RESEARCH FOUNDATION, priority 2004, published 2008).
Converted amounts (≈) assume the structure as drawn.

Experiments:
Format in all cases: cell-based, human
SW948 cells = assay: Cell proliferation assay, sensitivity of SW948 to various drugs; details: SW948 parental cells, 24 h drug exposure, cells counted day 4, mean ± SD of 1-4 assays; for IC50: Homo sapiens, read-out: mean IC50 dose, SW948
Procedure: (§1) Determination of cross-resistance was determined by cell proliferation assay. SW948, SW948CPTH or SW948CPTL cells were plated in 24-well tissue culture plates and allowed to grow for 24 h at which time the drugs were added at various doses ranging from 0-80 μg/ml. Then 24 h later, the culture medium was removed, and the cells were washed once with PBS followed by the addition of drug-free culture medium. Cells were counted on day 4 using a cell counter (Beckman Coulter, Fullerton, Calif.). The data were analyzed with Microsoft Excel (Microsoft Corp., Redmond, Wash.) using an exponential regression model to determine the IC50 dose.

SW948CPTH cells = assay: Cell proliferation assay, cross-resistance of SW948CPTH; details: for IC50: Homo sapiens, read-out: mean IC50 dose, SW948CPTH; for cross-resistance of SW948CPTH cells (in words): compared to SW948; for mean IC50 dose, SW948CPTH: SW948CPTH cells, without CPT-11 for >22 days, 24 h drug exposure, counted day 4, mean ± SD; for fold change, SW948CPTH: fold change of IC50 vs SW948 (in brackets)
Procedure: as §1

SW948CPTL cells = assay: Cell proliferation assay, cross-resistance of SW948CPTL; details: for IC50: Homo sapiens, read-out: mean IC50 dose, SW948CPTL; for resistance of SW948CPTL cells (in words): compared to SW948; for fold change, SW948CPTL: fold change of IC50 vs SW948 (in brackets); for mean IC50 dose, SW948CPTL: SW948CPTL cells, without CPT-11 for >28 days, 24 h drug exposure, counted day 4, mean ± SD
Procedure: as §1

| IC50 (SW948CPTH cells) [µg/mL] | IC50 (SW948CPTL cells) [µg/mL] | Structure (SMILES) | IC50 (SW948 cells) [µg/mL] | cross-resistance of SW948CPTH cells (in words) (SW948CPTH cells) | resistance of SW948CPTL cells (in words) (SW948CPTL cells) | mean IC50 dose, SW948 (SW948 cells) [µg/mL] | mean IC50 dose, SW948CPTH (SW948CPTH cells) [µg/mL] | fold change, SW948CPTH (SW948CPTH cells) | fold change, SW948CPTL (SW948CPTL cells) | mean IC50 dose, SW948CPTL (SW948CPTL cells) [µg/mL] |
| --- | --- | --- | --- | --- | --- | --- | --- | --- | --- | --- |
| 0.54 ± 0.2 (≈ 4.15 µM) | 0.75 ± 0.02 (≈ 5.77 µM) | O=c1[nH]cc(F)c(=O)[nH]1 [5-FU, 5-fluorouracil] | 0.61 ± 0.1 (≈ 4.69 µM) | No resistant | no resistance |  |  |  |  |  |
| 0.048 ± 0.008 (≈ 0.0883 µM) |  | COc1cccc2c1C(=O)c1c(O)c3c(c(O)c1C2=O)C[C@@](O)(C(=O)CO)C[C@@H]3O[C@H]1C[C@H](N)[C@H](O)[C@H](C)O1 [Doxorubicin, doxorubicin] | 0.037 ± 0.008 (≈ 0.0681 µM) | No resistant |  |  |  |  |  |  |
| 0.84 ± 0.21 (≈ 3.47 µM) |  | CC1(C)CCC2=C(O1)c1ccccc1C(=O)C2=O [Lapachone] | 1.06 ± 0.16 (≈ 4.38 µM) | not cross-resistant |  |  |  |  |  |  |

The next lines start with the compound.

| Structure (SMILES) | IC50 (SW948CPTH cells) [µg/mL] | IC50 (SW948CPTL cells) [µg/mL] | IC50 (SW948 cells) [µg/mL] | cross-resistance of SW948CPTH cells (in words) (SW948CPTH cells) | resistance of SW948CPTL cells (in words) (SW948CPTL cells) | mean IC50 dose, SW948 (SW948 cells) [µg/mL] | mean IC50 dose, SW948CPTH (SW948CPTH cells) [µg/mL] | fold change, SW948CPTH (SW948CPTH cells) | fold change, SW948CPTL (SW948CPTL cells) | mean IC50 dose, SW948CPTL (SW948CPTL cells) [µg/mL] |
| --- | --- | --- | --- | --- | --- | --- | --- | --- | --- | --- |
| CC[C@@]1(O)C(=O)OCc2c1cc1n(c2=O)Cc2cc3cc(O)ccc3nc2-1 [10-OH-CPT] |  |  |  | cross-resistant |  | 0.25 ± 0.16 | 1.7 ± 0.3 | 7 |  |  |
| CC[C@@]1(O)C(=O)OCc2c1cc1n(c2=O)Cc2cc3ccccc3nc2-1 [CPT, camptothecin] | 0.32 ± 0.02 (≈ 0.919 µM) | 0.14 (≈ 0.402 µM) | 0.057 ± 0.02 (≈ 0.164 µM) | cross-resistant | showed resistance |  |  | 6 | 2.4 |  |
| CCc1c2c(nc3ccc(OC(=O)N4CCC(N5CCCCC5)CC4)cc13)-c1cc3c(c(=O)n1C2)COC(=O)[C@]3(O)CC [CPT-11] |  |  |  | cross-resistant | showed resistance | 3.0 ± 0.3 | 38 ± 6.9 |  |  |  |
| N.N.[Cl][Pt][Cl] [Cisplatin, cisplatin] |  |  |  | No resistant | showed resistance | 1.3 ± 0.34 | 1.5 ± 0.15 |  | 1.7 | 2.2 ± 1.3 |
| COc1cc([C@@H]2c3cc4c(cc3[C@@H](O[C@@H]3O[C@@H]5CO[C@@H](C)O[C@H]5[C@H](O)[C@H]3O)[C@H]3COC(=O)[C@H]23)OCO4)cc(OC)c1O [Etoposide, etoposide] | 0.7 ± 0.2 (≈ 1.19 µM) | 1.6 ± 0.2 (≈ 2.72 µM) | 0.8 ± 0.1 (≈ 1.36 µM) | not cross-resistant | showed resistance |  |  |  | 2 |  |
| Nc1ccn([C@@H]2O[C@H](CO)[C@@H](O)C2(F)F)c(=O)n1 [Gemcitabine, gemcitabine] | 0.008 ± 0.004 (≈ 0.0304 µM) | 0.016 (≈ 0.0608 µM) | 0.009 ± 0.004 (≈ 0.0342 µM) | No resistant | showed resistance |  |  |  | 1.8 |  |
| CCc1c2c(nc3ccc(O)cc13)-c1cc3c(c(=O)n1C2)COC(=O)[C@]3(O)CC [SN38] |  |  |  | cross-resistant | showed resistance | 0.19 ± 0.01 | 1.5 ± 0.13 | 8 | 9 | 1.7 ± 0.15 |
